Read-outs that look alike come from different tables or passages of the source.
What was measured:
Assay type in all cases: cell-based, Escherichia coli
EKO-35 araC::acrBD408A = assay: MIC susceptibility profiling, efflux platform; details: for Fold change of MICs: EKO-35 araC::acrBD408A compared to EKO-35
Procedure, shortened: (§1)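 Each compound was serially diluted twofold, in duplicate, and challenged with a 1/2000 dilution of PBS-washed cells (OD600 ~1.0) in MHB II. Plates were shaken at 37 °C for 18 h and OD600 was read at room temperature, with the baseline subtracted.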

EKO-35 araC::acrEF = assay: MIC susceptibility profiling, efflux platform; details: for Fold change of MICs: EKO-35 araC::acrEF compared to EKO-35
Procedure, shortened: as §1

EKO-35 araC::emrAB = assay: MIC susceptibility profiling, efflux platform; details: for Fold change of MICs: EKO-35 araC::emrAB compared to EKO-35
Procedure, shortened: as §1

EKO-35 araC::emrKY = assay: MIC susceptibility profiling, efflux platform; details: for Fold change of MICs: EKO-35 araC::emrKY compared to EKO-35
Procedure, shortened: as §1

EKO-35 araC::macAB = assay: MIC susceptibility profiling, efflux platform; details: for Fold change of MICs: EKO-35 araC::macAB compared to EKO-35
Procedure, shortened: as §1

EKO-35 araC::mdtEF = assay: MIC susceptibility profiling, efflux platform; details: for Fold change of MICs: EKO-35 araC::mdtEF compared to EKO-35
Procedure, shortened: as §1

wild-type (WT) K-12-Pore = assay: microbe, parasite or virus in culture; details: technical duplicate; for MIC: Escherichia coli
Procedure, shortened: (§2)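 Strains carry the fhuA ΔC/Δ4L pore integrated between glmS and pstS under a constitutive promoter, with pore activity checked by vancomycin susceptibility. Overnight LB cultures were adjusted in PBS pH 7.4 to OD600 ~1.0 and diluted 1/2000 into MHB II. 2-fold compound titrations were read by OD600 after 18 h at 37 °C.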

ΔtolC-Pore = assay: microbe, parasite or virus in culture; details: for Minimum inhibitory concentration (MIC), Pore ΔtolC: Table 10, with pore
Procedure, shortened: as §2

EKO-35 araC::acrB Pore = assay: MIC susceptibility profiling, porinated efflux platform; details: for Fold changes of MICs: EKO-35 araC::acr-B Pore compared to EKO-35-Pore
Procedure, shortened: as §2

[1] = test system: EKO-35 araC::acrBD408A Pore; assay: as above; details: for Fold changes of MICs: EKO-35 araC::acrBD408A Pore compared to EKO-35-Pore
Procedure, shortened: as §2

EKO-35 araC::acrD Pore = assay: as above; details: for Fold changes of MICs: EKO-35 araC::acrD Pore compared to EKO-35-Pore
Procedure, shortened: as §2

EKO-35 araC::acrEF Pore = assay: as above; details: for Fold changes of MICs: EKO-35 araC::acrEF Pore compared to EKO-35-Pore
Procedure, shortened: as §2

EKO-35 araC::emrAB Pore = assay: as above; details: for Fold changes of MICs: EKO-35 araC::emrAB Pore compared to EKO-35-Pore
Procedure, shortened: as §2

EKO-35 araC::emrKY Pore = assay: as above; details: for Fold changes of MICs: EKO-35 araC::emrKY Pore compared to EKO-35-Pore
Procedure, shortened: as §2

EKO-35 araC::macAB Pore = assay: as above; details: for Fold changes of MICs: EKO-35 araC::macAB Pore compared to EKO-35-Pore
Procedure, shortened: as §2

EKO-35 araC::mdtBC Pore = assay: as above; details: for Fold changes of MICs: EKO-35 araC::mdtBC Pore compared to EKO-35-Pore
Procedure, shortened: as §2

EKO-35 araC::mdtEF Pore = assay: as above; details: for Fold changes of MICs: EKO-35 araC::mdtEF Pore compared to EKO-35-Pore
Procedure, shortened: as §2

EKO-35 araC::mexCD Pore = assay: as above; details: for Fold changes of MICs: EKO-35 araC::mexCD Pore compared to EKO-35-Pore
Procedure, shortened: as §2

[2] = Table 13B, non-porinated, technical duplicate
[3] = Table 13A, non-porinated, technical duplicate
[4] = Table 14A, porinated, technical duplicate

CN(C)[C@@H]1C(O)=C(C(N)=O)C(=O)[C@@]2(O)C(O)=C3C(=O)c4c(O)cccc4[C@@](C)(O)[C@H]3C[C@@H]12 [tetracycline]
Fold change of MICs (EKO-35 araC::acrBD408A): 1 fold
MIC (EKO-35 araC::acrBD408A; Escherichia coli, Table 13B, non-porinated, technical duplicate, read-out: Minimum Inhibitory Concentration, EKO-35 araC::acrBD408A): 0.195 µg/mL
Fold change of MICs (EKO-35 araC::acrEF): 1 fold
MIC (EKO-35 araC::acrEF; Escherichia coli, Table 13A, non-porinated, technical duplicate, read-out: Minimum Inhibitory Concentration, EKO-35 araC::acrEF): 0.195 µg/mL
Fold change of MICs (EKO-35 araC::emrAB): 1 fold
MIC (EKO-35 araC::emrAB; Escherichia coli, Table 13B, non-porinated, technical duplicate, read-out: Minimum Inhibitory Concentration, EKO-35 araC::emrAB): 0.195 µg/mL
Fold change of MICs (EKO-35 araC::emrKY): 1 fold
MIC (EKO-35 araC::emrKY; Escherichia coli, Table 13B, non-porinated, technical duplicate, read-out: Minimum Inhibitory Concentration, EKO-35 araC::emrKY): 0.195 µg/mL
Fold change of MICs (EKO-35 araC::macAB): 1 fold
MIC (EKO-35 araC::macAB; Escherichia coli, Table 13B, non-porinated, technical duplicate, read-out: Minimum Inhibitory Concentration, EKO-35 araC::macAB): 0.195 µg/mL
Fold change of MICs (EKO-35 araC::mdtEF): 1 fold
MIC (EKO-35 araC::mdtEF; Escherichia coli, Table 13A, non-porinated, technical duplicate, read-out: Minimum Inhibitory Concentration, EKO-35 araC::mdtEF): 0.195 µg/mL
MIC (wild-type (WT) K-12-Pore; Table 10, with pore, read-out: Minimum inhibitory concentration (MIC), Pore K-12): 0.781 µg/mL
MIC (wild-type (WT) K-12-Pore; Table 14A, porinated, read-out: Minimum inhibitory concentration, K-12 (WT)-Pore): 0.781 µg/mL
MIC (ΔtolC-Pore; Escherichia coli, 18 h, read-out: Minimum inhibitory concentration, ΔtolC-Pore): 0.391 µg/mL
Minimum inhibitory concentration (MIC), Pore ΔtolC (ΔtolC-Pore; technical duplicate): 0.391 µg/mL
Fold changes of MICs (EKO-35 araC::acrB Pore): 2 fold
MIC (EKO-35 araC::acrB Pore; Escherichia coli, Table 14A, porinated, technical duplicate, read-out: Minimum inhibitory concentration, EKO-35 araC::acrB Pore): 0.391 µg/mL
Fold changes of MICs [1]: 1 fold
MIC ([1]; Escherichia coli, EKO-35 araC::acrBD408A Pore, technical duplicate, read-out: Minimum inhibitory concentration): 0.195 µg/mL
Fold changes of MICs (EKO-35 araC::acrD Pore): 1 fold
MIC (EKO-35 araC::acrD Pore; Escherichia coli, Table 14A, porinated, technical duplicate, read-out: Minimum inhibitory concentration, EKO-35 araC::acrD Pore): 0.195 µg/mL
Fold changes of MICs (EKO-35 araC::acrEF Pore): 1 fold
MIC (EKO-35 araC::acrEF Pore; Escherichia coli, Table 14A, porinated, technical duplicate, read-out: Minimum inhibitory concentration, EKO-35 araC::acrEF Pore): 0.195 µg/mL
Fold changes of MICs (EKO-35 araC::emrAB Pore): 1 fold
MIC (EKO-35 araC::emrAB Pore; Escherichia coli, EKO-35 araC::emrAB Pore, technical duplicate, read-out: Minimum inhibitory concentration): 0.195 µg/mL
Fold changes of MICs (EKO-35 araC::emrKY Pore): 1 fold
MIC (EKO-35 araC::emrKY Pore; Escherichia coli, EKO-35 araC::emrKY Pore, technical duplicate, read-out: Minimum inhibitory concentration): 0.195 µg/mL
Fold changes of MICs (EKO-35 araC::macAB Pore): 1 fold
MIC (EKO-35 araC::macAB Pore; Escherichia coli, EKO-35 araC::macAB Pore, technical duplicate, read-out: Minimum inhibitory concentration): 0.195 µg/mL
Fold changes of MICs (EKO-35 araC::mdtBC Pore): 1 fold
MIC (EKO-35 araC::mdtBC Pore; Escherichia coli, EKO-35 araC::mdtBC Pore, technical duplicate, read-out: Minimum inhibitory concentration): 0.195 µg/mL
Fold changes of MICs (EKO-35 araC::mdtEF Pore): 1 fold
MIC (EKO-35 araC::mdtEF Pore; Escherichia coli, Table 14A, porinated, technical duplicate, read-out: Minimum inhibitory concentration, EKO-35 araC::mdtEF Pore): 0.195 µg/mL
Fold changes of MICs (EKO-35 araC::mexCD Pore): 1 fold
MIC (EKO-35 araC::mexCD Pore; Escherichia coli, EKO-35 araC::mexCD Pore, technical duplicate, read-out: Minimum inhibitory concentration): 0.195 µg/mL

O=C(Nc1ccccc1)Nc1ccc(Br)c(C(F)(F)F)c1 [compound 6]
Fold change of MICs (EKO-35 araC::acrBD408A): 1 fold
Minimum Inhibitory Concentration, EKO-35 araC::acrBD408A (EKO-35 araC::acrBD408A; [2]): 320 µg/mL
Fold change of MICs (EKO-35 araC::acrEF): 1 fold
Minimum Inhibitory Concentration, EKO-35 araC::acrEF (EKO-35 araC::acrEF; [3]): 320 µg/mL
Fold change of MICs (EKO-35 araC::emrAB): 1 fold
Minimum Inhibitory Concentration, EKO-35 araC::emrAB (EKO-35 araC::emrAB; [2]): 320 µg/mL
Fold change of MICs (EKO-35 araC::emrKY): 1 fold
Minimum Inhibitory Concentration, EKO-35 araC::emrKY (EKO-35 araC::emrKY; [2]): 320 µg/mL
Fold change of MICs (EKO-35 araC::macAB): 1 fold
Minimum Inhibitory Concentration, EKO-35 araC::macAB (EKO-35 araC::macAB; [2]): 320 µg/mL
Fold change of MICs (EKO-35 araC::mdtEF): 1 fold
Minimum Inhibitory Concentration, EKO-35 araC::mdtEF (EKO-35 araC::mdtEF; [3]): 320 µg/mL
Minimum inhibitory concentration (MIC), Pore K-12 (wild-type (WT) K-12-Pore; Table 10, with pore): 320 µg/mL
Minimum inhibitory concentration, K-12 (WT)-Pore (wild-type (WT) K-12-Pore; Table 14A, porinated): 320 µg/mL
Minimum inhibitory concentration (MIC), Pore ΔtolC (ΔtolC-Pore; technical duplicate): 0.625 µg/mL
Minimum inhibitory concentration, ΔtolC-Pore (ΔtolC-Pore; [4]): 0.625 µg/mL
Fold changes of MICs (EKO-35 araC::acrB Pore): 1 fold
Minimum inhibitory concentration, EKO-35 araC::acrB Pore (EKO-35 araC::acrB Pore; [4]): 320 µg/mL
Fold changes of MICs [1]: 1 fold
Minimum inhibitory concentration ([1]; EKO-35 araC::acrBD408A Pore, technical duplicate): 320 µg/mL
Fold changes of MICs (EKO-35 araC::acrD Pore): 1 fold
Minimum inhibitory concentration, EKO-35 araC::acrD Pore (EKO-35 araC::acrD Pore; [4]): 320 µg/mL
Fold changes of MICs (EKO-35 araC::acrEF Pore): 1 fold
Minimum inhibitory concentration, EKO-35 araC::acrEF Pore (EKO-35 araC::acrEF Pore; [4]): 320 µg/mL
Fold changes of MICs (EKO-35 araC::emrAB Pore): 1 fold
Minimum inhibitory concentration (EKO-35 araC::emrAB Pore; EKO-35 araC::emrAB Pore, technical duplicate): 320 µg/mL
Fold changes of MICs (EKO-35 araC::emrKY Pore): 1 fold
Minimum inhibitory concentration (EKO-35 araC::emrKY Pore; EKO-35 araC::emrKY Pore, technical duplicate): 320 µg/mL
Fold changes of MICs (EKO-35 araC::macAB Pore): 1 fold
Minimum inhibitory concentration (EKO-35 araC::macAB Pore; EKO-35 araC::macAB Pore, technical duplicate): 320 µg/mL
Fold changes of MICs (EKO-35 araC::mdtBC Pore): 1 fold
Minimum inhibitory concentration (EKO-35 araC::mdtBC Pore; EKO-35 araC::mdtBC Pore, technical duplicate): 320 µg/mL
Fold changes of MICs (EKO-35 araC::mdtEF Pore): 1 fold
Minimum inhibitory concentration, EKO-35 araC::mdtEF Pore (EKO-35 araC::mdtEF Pore; [4]): 320 µg/mL
Fold changes of MICs (EKO-35 araC::mexCD Pore): 1 fold
Minimum inhibitory concentration (EKO-35 araC::mexCD Pore; EKO-35 araC::mexCD Pore, technical duplicate): 320 µg/mL
